Measurements reported in patent publication US8138191B2, “Inhibitor compounds and cancer treatment methods” (Critical Outcome Technologies Inc., priority 2007, dated 2012).

Key:
DMS114 cells = experiment: Proliferation with anti-cancer agents plus COTI-2, DMS114; assay type: cell-based, human
CYP3A = CYP3A (Homo sapiens, UniProt P08684); experiment: in vitro; conditions: both
[1] = system: PI3K activity in SHP77 cells; experiment: PI3-K activity (PIP3 detection, Echelon kit), SHP77; assay type: cell-based, human; conditions: SHP77, 250 nM COTI-2 alone, 20 minutes
Source text: As a negative control, an equivalent volume of DMSO was utilized. […] To measure PI3-K activity, a commercial kit was purchased from Echelon. Following the procedures recommended by the manufacturer, membrane lipids were extracted in several steps and the resulting PIP3 was immobilized to nitrocellulose and measured by its interaction with a PH-domain containing protein and HRP-conjugated antibody supplied with the kit. As an additional control in these experiments, the specific PI3-K inhibitor, LY294002 was used to inhibit PI3-K and thus stop PIP3 production.

CYP2E1 = CYP2E1 (Homo sapiens, UniProt P05181); experiment: CYP2E1 Inhibition (HLM, chlorzoxanzone substrate)
HeLa cells = experiment: Sensitivity to COTI-2 after PTEN siRNA knockdown (alamar Blue), HeLa; assay type: cell-based, human; conditions: 48 h post-transfection
Protocol: Briefly, HeLa and MCF-7 cells were transfected with 100 nM PTEN siRNA or control non-targeted siRNA at 48 or 144 h prior to exposure to various concentrations of COTI-2.
To assess the capacity of transient siRNA transfection to alter the ability of cells to proliferate in the presence or absence of COTI-2, HeLa or MCF-7 cells (both PTEN-positive) were plated in T25 flasks and transfected 24 h later with PTEN siRNA or non-targeting control siRNA (100 nM in both cases), using Oligofectamine Reagent (Invitrogen) according to the manufacturer's instructions and as previously described (J Pharmacol Exp Ther, 322:123-132). […] PTEN and 18S rRNA mRNA levels were determined by semi-quantitative reverse transcription PCR. […]
For determination of drug sensitivity, HeLa and MCF-7 cells (transfected with PTEN siRNA or control, non-targeted siRNA 48 or 144 hours prior) were re-plated in 96-well plates (VWR, Mississauga, ON, Canada) at 1700 (MCF-7) and 1200 (HeLa) cells per well in a volume of 100 μl of DMEM+10% FBS. […] Cells were then grown for 4 days, and viable cell numbers were assessed by the alamar Blue fluorescence assay using a Wallac Victor^2 multilabel counter (PerkinElmer Wallac, Gaithersburg, Md.). […]

[2] = system: A2780 human ovarian tumor xenograft; experiment: A2780 human ovarian tumor xenograft model; conditions: for Day 17 CS (Complete Tumor Shrinkage): N 10
[3] = system: TC7 (human intestinal epithelial cells); experiment: in vitro
Protocol: (§1) TC7 cells were seeded at 1×10^5 cells/cm^2 on porous polycarbonate membrane in 96-well Multiscreen™ plates (Millipore). Cells were fed every 2 to 3 days and the day before the permeability assay. Permeability assays are performed with the cells at days 13-25 post-seeding. The assay directions included apical to basolateral (A-B) and basolateral to apical (B-A). The working solution for COTI-2 was prepared at 10 μM in HBSS-MES (5 mM), pH 6.5, or HBSS-HEPES (5 mM), pH 7.4, from a 1 mM DMSO stock solution. The working solution was then centrifuged and the supernatant was added to the apical or basolateral side with a final DMSO concentration of 1%. The assay was incubated for 60 or 40 min with gentle shaking at 37° C. The sampling scheme consisted of donor time zero, donor time 60 or 40 min, and receiver time 60 or 40 min. Samples were analyzed via (RP)HPLC-MS/MS using selected reaction monitoring (SRM). […] The cell monolayer integrity was confirmed by fluorescein permeability assessment (in the A-B direction at pH 7.4 on both sides with 1 h incubation) after the permeability assay with COTI-2. The cell monolayer that has a fluorescein permeability of less than 0.5×10^−6 cm/s was considered intact. The apparent permeability coefficient (Papp) of COTI-2 in the […] and the percent recovery of the compounds were calculated.

in vitro = conditions: human
Protocol: as §1

A460 = experiment: in vitro IC50 against cancer cell lines, A460; assay type: cell-based; conditions: Homo sapiens, 72 h; A460, NSCLC, 3 days
Protocol: Briefly, cells were plated in plastic tissue culture plates and grown under standard conditions for each cell line, in carbon dioxide/oxygen atmosphere in plastic tissue culture plates, in the presence of COTI-2 or COTI-219 compounds at 35° C. for 3 days. Control cultures were treated with vehicle minus compound. Cells were counted after 3 days in culture and at a cell density of no more than 80%. The following cell lines, obtained from the National Cancer Institute, were tested: human SCLC cell lines DMS153, DMS114, SHP77; human NSCLC cell lines H226, A460, A560; human breast cancer cell lines T47D, MCF7; human colon cancer cell line HT29; and, human Leukemia cell lines K562, HL60.

[4] = Caco-2, pH 7.4, Permeability Mean

CYP2E1, sequence (P05181 whole entry): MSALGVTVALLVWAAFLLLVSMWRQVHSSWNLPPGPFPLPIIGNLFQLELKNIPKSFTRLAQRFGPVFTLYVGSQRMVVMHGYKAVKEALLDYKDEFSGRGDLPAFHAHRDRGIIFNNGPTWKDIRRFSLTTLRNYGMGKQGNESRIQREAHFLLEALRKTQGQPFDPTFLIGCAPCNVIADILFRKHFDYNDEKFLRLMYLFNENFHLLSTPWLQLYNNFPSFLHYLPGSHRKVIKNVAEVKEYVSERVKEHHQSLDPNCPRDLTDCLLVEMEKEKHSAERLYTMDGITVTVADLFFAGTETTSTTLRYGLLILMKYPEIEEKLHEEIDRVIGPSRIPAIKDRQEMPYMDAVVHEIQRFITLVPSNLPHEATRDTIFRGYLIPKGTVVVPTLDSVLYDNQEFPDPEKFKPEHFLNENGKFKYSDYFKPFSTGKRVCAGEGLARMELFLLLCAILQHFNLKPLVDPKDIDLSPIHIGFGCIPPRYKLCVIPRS
CYP3A, sequence (P08684 2-503): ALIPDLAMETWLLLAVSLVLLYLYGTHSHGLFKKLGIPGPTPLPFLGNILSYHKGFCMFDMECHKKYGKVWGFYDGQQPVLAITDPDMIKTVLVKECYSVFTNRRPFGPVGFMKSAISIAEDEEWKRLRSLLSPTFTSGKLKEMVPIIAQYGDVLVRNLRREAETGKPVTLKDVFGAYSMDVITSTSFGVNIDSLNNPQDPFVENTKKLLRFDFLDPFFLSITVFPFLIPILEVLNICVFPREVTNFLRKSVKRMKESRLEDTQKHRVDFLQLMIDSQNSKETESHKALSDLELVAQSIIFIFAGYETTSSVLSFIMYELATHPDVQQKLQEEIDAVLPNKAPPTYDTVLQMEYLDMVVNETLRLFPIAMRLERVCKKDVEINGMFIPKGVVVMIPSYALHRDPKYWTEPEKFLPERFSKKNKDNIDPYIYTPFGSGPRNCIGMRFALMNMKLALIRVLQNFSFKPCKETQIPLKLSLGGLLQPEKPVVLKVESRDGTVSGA

With S=C(N/N=C1/CCCc2cccnc21)N1CCN(c2ccccn2)CC1 [COTI-2] the “reduction of proliferation as a single agent” value (DMS114 cells; DMS114, 31 nM) was 25%, the “reduction of proliferation as a single agent” value (DMS114 cells; DMS114, 73 nM) was 25% and the inhibition at 15 min, 10 µM (CYP3A; human liver microsomes, pH 7.4, probe testosterone (10 µM)) was -4%. The inhibition at 15 min, 10 µM (CYP3A; liver microsomes, pH 7.4, probe testosterone) was under 50%, the “PI3K activity (PIP3 levels)” value [1] was “did not inhibit PI3K activity” and the percent inhibition (CYP2E1; CYP2E1, 10 μM) was “below 50%”. For the same molecule, the “% Inhibition of Control Values” (CYP2E1; CYP2E1, HLM, chlorzoxazone substrate, 1.0E−05 M) was −2%, the “resistance to COTI-2 after PTEN siRNA transfection” value (HeLa cells) was “significant increase in the resistance” and the “Day 17 Mean tumor weight” value ([2]; COTI-2 12.5 mg/kg IV) was 1,699.2 ± 241.4 mg. For the same molecule, the “Day 17 TGI” value ([2]; COTI-2 12.5 mg/kg IV) was 22.04%, the “Maximum weight loss (%) (Day #)” value ([2]; COTI-2 12.5 mg/kg IV, Day 11) was 10.35% (Day 11) and the “Day 17 CS (Complete Tumor Shrinkage)” value ([2]; COTI-2 12.5 mg/kg IV) was 0. The “Day 17 Mean tumor weight” value ([2]; COTI-2 50.0 mg/kg IV) was 1,622.8 ± 403.0 mg, the “Day 17 TGI” value ([2]; COTI-2 50.0 mg/kg IV) was 25.76% and the “Maximum weight loss (%) (Day #)” value ([2]; COTI-2 50.0 mg/kg IV, Day 8) was 8.65% (Day 8). For the same molecule, the “Day 17 CS (Complete Tumor Shrinkage)” value ([2]; COTI-2 50.0 mg/kg IV) was 0, the Pgp substrate assessment ([3]; Caco-2) was “not a substrate of Pgp” and the Flags ([3]; Caco-2, pH 7.4) was “BLQ”. The efflux ratio at 10 µM (in vitro; Caco-2) was about 4.5, the Papp A→B at 10 µM (in vitro; Caco-2, A-B permeability (Papp)) was under 0.3 ×10⁻⁶ cm/s and the recovery at 10 µM (in vitro; Caco-2, mean recovery) was 22%. It also gave a Papp A→B at 10 µM (in vitro; [4]) of under 0.3 ×10⁻⁶ cm/s, a Papp B→A at 10 µM (in vitro; [4]) of 1.4 ×10⁻⁶ cm/s and an IC50 (A460) of 7.9 µM.
